Entries after “also recorded” stand apart in the source; their conditions may differ.
Tests used:
[1] = tested on: hyperacetylated Histone H4; test: Western blot of histone H4 hyperacetylation in A2780 cells; type: cell-based, human; conditions: A2780, 10 µM, 2, 4, 16 hrs
Description: Cells were then washed with ice-cold phosphate buffered saline (PBS) and lysed and sonicated in RIPA buffer [150 mM NaCl, 50 mM TrisHCl pH 7.4, 5 mM EDTA, 1% NP40, 0.1% SDS, 1 mM phenylmethylsulphonyl fluoride (PMSF) and proteinase inhibitor cocktail (1x)]. Cellular debris was removed by centrifugation (12,000 × g for 20 min, 4 °C) and protein concentration of the supernatants determined by Bradford Assay. Proteins (30 μg protein per lane) were resolved by SDS-PAGE, then transferred to the PVDF membrane (Hybond-P; Amersham, UK). For band size determination, Amersham Full-Range Rainbow™ Molecular Weight Markers (#RPN800) were loaded adjacent to the proteins within the gel. Non-specific protein binding on the PVDF membrane was blocked using 5% non-fat milk powder and the membranes probed separately with either anti-hyperacetylated Histone H4 (Penta) antibody (Upstate Biotechnology, USA), acetylated tubulin or β-actin antibodies (Sigma-Aldrich, UK). This was followed by incubation with horseradish peroxidase (HRP)-conjugated secondary antibodies (Dako, USA), with immunoreactive bands detected by enhanced chemiluminescence (ECL Plus detection kit; Amersham, UK).

leukemic cell lines = test: NCI-60 cytotoxicity screen, leukaemic cell lines; type: cell-based; conditions: Homo sapiens; NCI-60, range over cell lines; read-out: cytotoxicity IC50 against leukemic cell lines
Source text: Compounds 3–7 were submitted to the US National Cancer Institute (NIH, Bethesda, Maryland) for screening against the NCI-60 panel of human cancer cell lines, as per standard protocol.

HDAC6 = HDAC6 (Homo sapiens, UniProt Q9UBN7); test: Inhibition of individual recombinant KDACs
[2] = Maximum tolerated dose evaluation in nude mice; type: in vivo
Source text: (§1) Female CD-1 (Crl:CD1-Foxn1^nu) immunodeficient nude mice aged 6–12 weeks were used (Charles River, Margate UK). Mice were kept in stainless steel cages housed in isolation cabinets in an air-conditioned room with regular alternating cycles of light and darkness, receiving Teklad 2018 diet (Envigo, Blackthorn, UK) and water ad libitum. Before experimentation, all mice were allowed to acclimatise for one week to their environment. Environmental enrichment was provided in the form of Perspex “mouse houses”, chewing blocks and exercise wheels.
For evaluation of the maximum tolerated dose (MTD), two mice were treated at each of the three dose levels evaluated ([…]). […] Mice were observed daily for signs of deleterious effects and bodyweight measured frequently. […] If no deleterious effects were seen after at least 14 days of study, then the animals were euthanised by isoflurane anaesthesia followed by cervical dislocation, and the dose considered non-toxic.

[3] = tested on: A2780 human ovarian tumour xenograft; test: A2780 human ovarian tumour xenograft efficacy study; type: in vivo, mice; conditions: 100 mg/kg i.p. days 0–4 and 7–11
Source text: as §1
To assess in vivo compound efficacy, mice were implanted subcutaneously in the abdominal flanks with 2–3 mm^3 -fragments of A2780 human ovarian tumour xenograft tumours, whilst under brief general inhalation anaesthesia (2% isoflurane). Treatments were initiated when tumours reached approximately 32 mm^3 and mice randomly assigned to cohorts (Twelve mice; n = 6 per group). […] Tumour volume, via calliper measurements, and body weight were assessed daily from initiation of treatment. The cut-off points for in-study termination being a > 15% body weight loss over a 72-h period and the tumour not exceeding 15 mm in the longest diameter. All mice were euthanised by isoflurane anaesthesia followed by cervical dislocation […]

HDAC2 = HDAC2 (Homo sapiens, UniProt Q92769); test: Inhibition of individual recombinant KDACs
Chain of HDAC2 (Q92769 whole entry): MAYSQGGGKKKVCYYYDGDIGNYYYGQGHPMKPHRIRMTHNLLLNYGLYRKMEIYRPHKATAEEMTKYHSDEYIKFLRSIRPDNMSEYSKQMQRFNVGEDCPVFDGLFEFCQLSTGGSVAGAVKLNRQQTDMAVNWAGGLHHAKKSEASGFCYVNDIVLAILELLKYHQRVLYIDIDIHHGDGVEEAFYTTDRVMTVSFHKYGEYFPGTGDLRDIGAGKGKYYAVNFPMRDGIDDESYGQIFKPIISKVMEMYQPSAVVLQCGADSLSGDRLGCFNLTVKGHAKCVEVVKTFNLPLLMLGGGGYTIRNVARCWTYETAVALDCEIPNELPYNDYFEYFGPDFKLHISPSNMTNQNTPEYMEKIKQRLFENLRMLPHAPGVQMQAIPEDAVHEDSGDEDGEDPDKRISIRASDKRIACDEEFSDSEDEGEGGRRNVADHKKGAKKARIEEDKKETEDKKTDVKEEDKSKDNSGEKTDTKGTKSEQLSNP

Chain of HDAC6 (Q9UBN7 whole entry): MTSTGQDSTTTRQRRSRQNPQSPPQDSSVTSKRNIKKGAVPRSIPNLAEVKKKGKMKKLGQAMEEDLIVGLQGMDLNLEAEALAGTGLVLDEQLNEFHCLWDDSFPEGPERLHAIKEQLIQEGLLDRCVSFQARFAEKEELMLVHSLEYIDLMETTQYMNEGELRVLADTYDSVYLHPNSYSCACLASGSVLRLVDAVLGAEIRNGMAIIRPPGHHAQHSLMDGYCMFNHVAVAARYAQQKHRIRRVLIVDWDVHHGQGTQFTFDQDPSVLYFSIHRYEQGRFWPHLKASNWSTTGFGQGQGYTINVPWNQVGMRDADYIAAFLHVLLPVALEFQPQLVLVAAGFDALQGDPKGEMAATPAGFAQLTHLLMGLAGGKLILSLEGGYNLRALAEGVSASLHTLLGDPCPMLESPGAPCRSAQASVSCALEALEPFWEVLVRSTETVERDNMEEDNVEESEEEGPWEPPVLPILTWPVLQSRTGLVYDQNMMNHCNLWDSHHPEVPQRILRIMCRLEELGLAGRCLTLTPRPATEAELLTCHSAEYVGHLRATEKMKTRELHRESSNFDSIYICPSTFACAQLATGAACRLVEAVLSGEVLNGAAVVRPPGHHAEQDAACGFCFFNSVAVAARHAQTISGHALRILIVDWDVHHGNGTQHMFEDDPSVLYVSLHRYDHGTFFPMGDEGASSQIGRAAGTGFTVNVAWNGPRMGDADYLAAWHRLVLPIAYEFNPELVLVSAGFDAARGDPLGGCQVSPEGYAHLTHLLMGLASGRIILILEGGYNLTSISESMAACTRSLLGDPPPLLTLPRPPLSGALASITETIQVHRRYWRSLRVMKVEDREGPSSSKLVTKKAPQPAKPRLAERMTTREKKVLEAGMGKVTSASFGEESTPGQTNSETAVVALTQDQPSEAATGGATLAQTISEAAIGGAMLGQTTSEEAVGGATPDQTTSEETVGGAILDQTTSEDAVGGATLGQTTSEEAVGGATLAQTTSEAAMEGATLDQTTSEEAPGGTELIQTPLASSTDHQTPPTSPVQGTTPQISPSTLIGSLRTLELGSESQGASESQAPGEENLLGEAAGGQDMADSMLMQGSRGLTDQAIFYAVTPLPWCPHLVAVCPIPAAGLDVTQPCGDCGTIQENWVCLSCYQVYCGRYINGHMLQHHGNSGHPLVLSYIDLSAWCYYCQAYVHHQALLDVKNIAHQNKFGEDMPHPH

SMILES: C=C(CN1CCN(c2cccc(C(F)(F)F)n2)CC1)c1ccc(C(=O)Nc2ccccc2N)cc1 [Compound 7, N-(2-aminophenyl)-4–(3-(4–(6-(trifluoromethyl)pyridin-2-yl)piperazin-1-yl)prop-1-en-2-yl)benzamide]
- histone H4 hyperacetylation (western blotting) [1]: Time dependent increase in Histone H4 acetylation; also recorded: time-dependent increase in histone H4 hyperacetylation
- IC50 (leukemic cell lines): 0.28 to 0.86 µM
- IC50 (HDAC6): > 10 µM
- systemic toxicity ([2]; 100 mg/kg i.p., 5 consecutive days): No systemic toxicity
- MTD ([2]; female, CD-1 nude (Crl:CD1-Foxn1^nu), mouse, in vivo, ip, single dose on 5 consecutive days): 100 mg/kg
- weight loss / toxicity during treatment [3]: No significant weight loss or overt toxicity; also recorded: did not induce significant weight loss or detrimental toxicity
- IC50 (HDAC2): 3.97 µM
